Literature values in patent publication US8236331B2, “Cosmetic cooling composition” (Coty Deutschland GmbH, priority 2004, dated 2012).

Settings: WO 03/007909, no period of time specified

For `CCCCCCCCCCCCCCCC(=O)OC` [methyl palmitate], the “cooling effect as described” value is listed as “long-lasting”.
